Source: patent US11028090B2 (Dong Wha Pharm. Co., Ltd., priority 2017, dated 2021)
Like-named read-outs stand apart in the source and are kept apart here.

What was measured:
[1] = molecular target: BRD4 (BD1+BD2) bromodomain (Homo sapiens (Human), UniProt O60885); assay: BRD4 binding inhibition (AlphaScreen, GST-BRD4 vs tetraacetylated histone H4 peptide)
Summary of the method: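 AlphaScreen read after 30 min dark incubation at room temperature with glutathione acceptor/streptavidin donor beads (10 μg/ml each). The beads were added to compound plus 100 nM biotin-H4 (K5,8,12,16-acetyl) peptide and 100 nM GST-BRD4 BD1+BD2 in pH 7.4 HEPES/Tween/BSA/DTT buffer.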

[2] = system: acute myelogenous leukemia cells (MV-4-11 cells); assay: Cytotoxicity to acute myelogenous leukemia cells (MV-4-11 cells), CCK-8; details: Homo sapiens, MV4-11, 72 h
Description: The following experiment was performed to evaluate the cytotoxicity of [1,2,4]triazolo[4,3-a]quinoxaline derivative according to the present invention to acute myelogenous leukemia cells (MV-4-11 cells).
Acute myelogenous leukemia cells (MV-4-11 cells) were distributed in a 96 well plate at the density of 5×10^3 cells/well. The plated cells were treated with the compounds of the present invention dissolved in DMSO at the different concentrations ranging from 0.01 μM to 10 μM. 72 hours later, the activities of the compounds were determined using CCK-8 reagent.

[3] = GST-BRD4 (BD1+BD2) / biotinylated acetyl-histone H4 (Lys5,8,12,16) peptide, read-out: IC50, BRD4 binding inhibition
[4] = GST-BRD4 (BD1+BD2) vs biotinylated acetyl-histone H4 peptide, AlphaScreen, read-out: BRD4 IC50
[5] = read-out: IC50, cytotoxicity against acute myelogenous leukemia cells
[6] = read-out: MV-4-11 Cytotoxicity IC50

| Structure (SMILES) | IC50 [1, 3] [nM] | IC50 [1, 4] [nM] | IC50 [2, 5] [nM] | IC50 [2, 6] [nM] |
| --- | --- | --- | --- | --- |
| Cc1nnc2c(NCCCCNC(=O)OC(C)C)nc3cc4c(cc3n12)OCCO4 [Example 188, [4-(1-methyl-8,9-dihydro-7,10-dioxa-2,3,5,11b-tetraaza-cyclopenta[a]anthracene-4-ylamino)-butyl]-carbamic acid isopropylester] | ≤ 50 | 25 | ≤ 200 | 170 |
| COCCOc1ccc2c(c1)nc(NCCCCNC(=O)[C@H](O)C(C)C)c1nnc(C)n12 [Example 388, 2-(R)-hydroxy-N-{4-[7-(2-methoxy-ethoxy)-1-methyl-[1,2,4]triazolo[4,3-a]quinoxaline-4-ylamino]-butyl}-3-methyl-butyramide] | ≤ 10 | 6 | ≤ 200 | 55 |
| COc1cc2nc(NCCCCNC(=O)CCC(C)C)c3nnc(C)n3c2cc1OC [Example 79, 4-methyl-pentanoic acid [4-(7,8-dimethoxy-1-methyl-[1,2,4]triazolo[4,3-a]quinoxaline-4-ylamino)-butyl]-amide] | ≤ 10 | 5 | ≤ 200 | 70 |
| COc1cc2nc(NCCCCNC(=O)C=C(C)C)c3nnc(C)n3c2cc1OC [Example 71, 3-methyl-butene-2-oic acid-[4-(7,8-dimethoxy-1-methyl-[1,2,4]triazolo[4,3-a]quinoxaline-4-ylamino)-butyl]-amide] | ≤ 50 | 18 | ≤ 200 | 110 |
| CNc1cc2c(cc1OC)nc(NCCCCNC(=O)CC(C)C)c1nnc(C)n12 [Example 557, N-[4-(7-methoxy-1-methyl-8-methylamino-[1,2,4]triazolo[4,3-a]quinoxaline-4-ylamino)-butyl]-3-methyl-butyramide] | ≤ 50 | 13 |  | 280 |
| Cc1nnc2c(NCCCCNC(=O)[C@@H](O)C(C)C)nc3cc4c(cc3n12)OCCO4 [Example 183, 2-(S)-hydroxy-3-methyl-N-[4-(1-methyl-8,9-dihydro-7,10-dioxa-2,3,5,11b-tetraaza-cyclopenta[a]anthracene-4-ylamino)-butyl]-butyramide] | ≤ 50 | 11 |  | 250 |
| Cc1nnc2c(NCCCCNC(=O)OCC(C)C)nc3cc4c(cc3n12)OCCO4 [Example 189, [4-(1-methyl-8,9-dihydro-7,10-dioxa-2,3,5,11b-tetraaza-cyclopenta[a]anthracene-4-ylamino)-butyl]-carbamic acid isobutylester] | ≤ 50 | 17 | ≤ 200 | 110 |
| COc1ccc2c(nc(NCCCCNC(=O)Cc3cccs3)c3nnc(C)n32)c1Cl [Example 463, N-[4-(6-chloro-7-methoxy-1-methyl-[1,2,4]triazolo[4,3-a]quinoxaline-4-ylamino)-butyl]-2-thiophene-2-yl-acetamide] | ≤ 50 |  | ≤ 200 | 100 |
| Cc1nnc2c(NCCCCNC(=O)c3ccccc3Cl)nc3cc(OC(F)(F)F)ccc3n12 [Example 274, 2-chloro-N-[4-(1-methyl-7-trifluoromethoxy-[1,2,4]triazolo[4,3-a]quinoxaline-4-ylamino)-butyl]-benzamide] | ≤ 50 | 27 |  | 280 |
| COc1ccc2c(c1)nc(NCCCCNC(=O)[C@@H](F)C(C)C)c1nnc(C)n12 [Example 286, 2-(S)-fluoro-N-[4-(7-methoxy-1-methyl-[1,2,4]triazolo[4,3-a]quinoxaline-4-ylamino)-butyl]-3-methyl-butyramide] | ≤ 50 | 30 | ≤ 200 | 26 |
| Cc1nnc2c(NCCCCNC(=O)CCC(C)C)nc3cc(-c4nc5ccccc5n4C)ccc3n12 [Example 236, 4-methyl-pentanoic acid-{4-[1-methyl-7-(1-methyl-1H-benzoimidazole-2-yl)-[1,2,4]triazolo[4,3-a]quinoxaline-4-ylamino]-butyl}-amide] | ≤ 10 | 2 | ≤ 200 | 87 |
| Cc1nnc2c(NCCCCNC(=O)c3ccccc3Cl)nc3ccc(OC(F)(F)F)cc3n12 [Example 268, 2-chloro-N-[4-(1-methyl-8-trifluoromethoxy-[1,2,4]triazolo[4,3-a]quinoxaline-4-ylamino)-butyl]-benzamide] | ≤ 50 | 35 |  | 500 |
| COc1cc2nc(NCCCCNC(=O)c3ccc(F)cc3)c3nnc(C)n3c2cc1OC [Example 98, N-[4-(7,8-dimethoxy-1-methyl-[1,2,4]triazolo[4,3-a]quinoxaline-4-ylamino)-butyl]-4-fluoro-benzamide] | ≤ 50 | 47 |  | 830 |
| Cc1nnc2c(NCCCCNC(=O)CC(C)(C)C)nc3cc(OC(F)(F)F)ccc3n12 [Example 272, 3,3-dimethyl-N-[4-(1-methyl-7-trifluoromethoxy-[1,2,4]triazolo[4,3-a]quinoxaline-4-ylamino)-butyl]-butyramide] | ≤ 50 | 25 |  | 810 |
| Cc1nnc2c(NCCCCNC(=O)[C@@H](NC(=O)C(C)(C)C)C(C)C)nc3cc(N4C[C@@H](C)O[C@@H](C)C4)ccc3n12 [Example 519] | ≤ 50 | 49 |  | 400 |
| CCOc1cc2nc(NCCCCNC(=O)CC(C)C)c3nnc(C)n3c2cc1OCC [Example 177] | ≤ 50 | 50 | ≤ 200 | 110 |
| Cc1nnc2c(NCCCCNC(=O)OC3CCCC3)nc3cc(-c4nc5ccccc5n4C)ccc3n12 [Example 229, {4-[1-methyl-7-(1-methyl-1H-benzoimidazole-2-yl)-[1,2,4]triazolo[4,3-a]quinoxaline-4-ylamino]-butyl}-carbamic acid cyclopentylester] | ≤ 10 | 3 | ≤ 200 | 150 |
| COc1ccc2c(nc(NCCCCNC(=O)CC(C)C)c3nnc(C)n32)c1Cl [Example 461, [4-(6-chloro-7-methoxy-1-methyl-[1,2,4]triazolo[4,3-a]quinoxaline-4-ylamino)-butyl]-3-methyl-butyramide] | ≤ 50 |  |  | 250 |
| COCCOc1ccc2c(c1)nc(NCCCCNC(=O)c1cccc(Cl)c1Cl)c1nnc(C)n12 [Example 413, 2,3-dichloro-N-{4-[7-(2-methoxy-ethoxy)-1-methyl-[1,2,4]triazolo[4,3-a]quinoxaline-4-ylamino]-butyl}-benzamide] | ≤ 10 |  |  | 190 |
| Cc1nnc2c(NCCCCNC(=O)OC(C)(C)C)nc3cc4c(cc3n12)OCCO4 [Example 178, [4-(1-methyl-8,9-dihydro-7,10-dioxa-2,3,5,11b-tetraaza-cyclopenta[a]anthracene-4-ylamino)-butyl]-carbamic acid-tert-butylester] | ≤ 50 | 17 |  | 440 |
| CCC(C)OC(=O)NCCCCNc1nc2cc(OC)c(OC)cc2n2c(C)nnc12 (stereo not drawn) [Example 63, [4-(7,8-dimethoxy-1-methyl-[1,2,4]triazolo[4,3-a]quinoxaline-4-ylamino)-butyl]-carbamic acid-sec-butylester] | ≤ 50 | 12 | ≤ 200 | 70 |
| COc1cc2nc(-c3ccc4c(c3)nc(NCCCCNC(=O)CC(C)C)c3nnc(C)n34)[nH]c2cc1OC [Example 227, N-{4-[7-(5,6-dimethoxy-1H-benzoimidazole-2-yl)-1-methyl-[1,2,4]triazolo[4,3-a]quinoxaline-4-ylamino]-butyl}-3-methyl-butyramide] | ≤ 10 | 1 | ≤ 200 | 39 |
| COc1cc2nc(NCCCCNC(=O)CC(C)C)c3nnc(C)n3c2cc1[N+](=O)[O-] [Example 555, N-[4-(7-methoxy-1-methyl-8-nitro-[1,2,4]triazolo[4,3-a]quinoxaline-4-ylamino)-butyl]-3-methyl-butyramide] |  | 65 | ≤ 200 | 118 |
| Cc1nnc2c(NCCCCN)nc3cc4c(cc3n12)OCCO4 [Example 179, N^1-(1-methyl-8,9-dihydro-7,10-dioxa-2,3,5,11b-tetraaza-cyclopenta[a]anthracene-4-yl)-butane-1,4-diamine ditrifluoroacetic acid] | ≤ 50 | 35 |  | 640 |
| C=CCOC(=O)NCCCCNc1nc2cc(OCCOC)ccc2n2c(C)nnc12 [Example 370, {4-[7-(2-methoxy-ethoxy)-1-methyl-[1,2,4]triazolo[4,3-a]quinoxaline-4-ylamino]-butyl}-carbamic acid allylester] | ≤ 50 | 14 |  | 240 |
| CCCNc1ccc2nc(NCCCCNC(=O)CC(C)C)c3nnc(C)n3c2c1 [Example 552, 3-methyl-N-[4-(1-methyl-8-propylamino-[1,2,4]triazolo[4,3-a]quinoxaline-4-ylamino)-butyl]-butyramide] | ≤ 50 | 21 | ≤ 200 | 157 |
| CCOc1ccc2c(c1)nc(NCCCCNC(=O)OCC(C)C)c1nnc(C)n12 [Example 444, [4-(7-ethoxy-1-methyl-[1,2,4]triazolo[4,3-a]quinoxaline-4-ylamino)-butyl]-carbamic acid isobutylester] | ≤ 10 | 10 | ≤ 200 | 120 |
| COc1cc(C)c2nc(NCCCCNC(=O)CC(C)C)c3nnc(C)n3c2c1 [Example 160, N-[4-(8-methoxy-1,6-dimethyl-[1,2,4]triazolo[4,3-a]quinoxaline-4-ylamino)-butyl]-3-methyl-butyramide] | ≤ 50 | 28 | ≤ 200 | 70 |
